This note sets out measurements from US10183009B2, “Therapeutic compounds and uses thereof” (GENENTECH, INC., priority 2014, dated 2019).

For assay [1], the target named is TAF1-BD2 (Homo sapiens (Human), UniProt P21675). The assay can be described thus: TAF1-BD2 TR-FRET Binding Assay. The settings on record: Assay: TAF-1. For orientation: In TR-FRET formats the signal depends on donor and acceptor labels being close together.
Protocol: Specifically, in a 384 well ProxiPlate TAF1-BD2 (6 nM final) was combined with biotin-ligand (50 nM final) in 50 mM HEPES (pH 7.5), 50 mM NaCl, 1 mM TCEP, 0.01% (w/v) BSA, and 0.008% (w/v) Brij-35 either in the presence of DMSO (final 0.2% DMSO) or compound dilution series in DMSO. After 10 minutes incubation at room temperature, a mixture Eu-W1024 Anti-6×His antibody (Perkin Elmer AD0110) and SureLight™ Allophycocyanin-Streptavidin (APC-SA, Perkin Elmer CR130-100) were added to a final concentrations of 0.2 nMolar antibody and 25 nMolar APC-SA, respectively. After twenty minutes of equilibration, the plates were read on an Envision instrument and IC50s calculated using a four parameter non-linear curve fit.
Assay [2] has as its target BRD4(BD1) (Homo sapiens (Human), UniProt O60885). The assay can be described thus: BRD4 AlphaLisa Binding Assay.
For assay [3], the target named is BRD9 (Homo sapiens (Human), UniProt Q9H8M2). The experiment in a line: BRD9 AlphaLisa Binding Assay. The method, then: After 20 minutes incubation at room temperature AlphaLisa Streptavidin Acceptor Beads (Perkin-A[…]) and AlphaLisa Nickel donor beads (Perkin AS 10 ID) were added to a final concentration of 15 ug/mL each.
For orientation: Bead proximity is the source of the signal in Alpha formats.

BRD9, sequence (Q9H8M2 134-239 limits assumed): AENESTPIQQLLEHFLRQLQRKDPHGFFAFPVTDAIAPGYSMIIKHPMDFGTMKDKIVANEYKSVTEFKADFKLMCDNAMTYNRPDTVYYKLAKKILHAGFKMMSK
TAF1-BD2, sequence (P21675 1525-1656 limits assumed): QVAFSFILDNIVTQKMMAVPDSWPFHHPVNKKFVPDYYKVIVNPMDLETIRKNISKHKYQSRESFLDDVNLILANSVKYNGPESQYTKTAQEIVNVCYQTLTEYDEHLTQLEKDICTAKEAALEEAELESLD

As for `CC(C)=CCn1cc(-c2cccc(C(=O)N(C)C)c2)c2cc[nH]c2c1=O` [Example 3, N,N-dimethyl-3-[6-(3-methylbut-2-enyl)-7-oxo-1H-pyrrolo[2,3-c]pyridin-4-yl]benzamide], the IC50 in assay [1] came to 5200 nM. In other words, the single-digit micromolar range.
As for `CN(C)C(=O)c1cccc(-c2cn(CCC3CC3)c(=O)c3[nH]ccc23)c1` [Example 4, 3-[6-(2-cyclopropylethyl)-7-oxo-1H-pyrrolo[2,3-c]pyridin-4-yl]-N,N-dimethyl-benzamide], the IC50 in assay [2] worked out at 2100 nM.
As for `CN(C)C(=O)c1cccc(-c2cn(CC3CCCC3)c(=O)c3[nH]ccc23)c1` [Example 5, 3-[6-(cyclopentylmethyl)-7-oxo-1H-pyrrolo[2,3-c]pyridin-4-yl]-N,N-dimethyl-benzamide], the IC50 in assay [2] turned out to be 6400 nM. Against the preceding compound, the IC50 is about 3-fold higher.
`CC/C=C/Cn1cc(-c2cccc(C(=O)N(C)C)c2)c2cc[nH]c2c1=O` [Example 7, N,N-dimethyl-3-[7-oxo-6-[(E)-pent-2-enyl]-1H-pyrrolo[2,3-c]pyridin-4-yl]benzamide]: the IC50 in assay [2] came out at 2700 nM. This IC50 is about 2.4-fold lower than that of the compound before.
Still for that read-out and setting: as for `CN(C)C(=O)c1cccc(-c2cn(CC3CCCCC3)c(=O)c3[nH]ccc23)c1` [Example 9, 3-[6-(cyclohexylmethyl)-7-oxo-1H-pyrrolo[2,3-c]pyridin-4-yl]-N,N-dimethyl-benzamide], the figure is 15000 nM.
In assay [2], `CN(C)C(=O)c1cccc(-c2cn(CC3CCC3)c(=O)c3[nH]ccc23)c1` [Example 11, 3-[6-(cyclobutylmethyl)-7-oxo-1H-pyrrolo[2,3-c]pyridin-4-yl]-N,N-dimethyl-benzamide] had an IC50 of 3600 nM.
The same measure, in the same setting: as for `CN(C)C(=O)c1cccc(-c2cn(CCC3CCCCC3)c(=O)c3[nH]ccc23)c1` [Example 12, 3-[6-(2-cyclohexylethyl)-7-oxo-1H-pyrrolo[2,3-c]pyridin-4-yl]-N,N-dimethyl-benzamide], the figure is 12000 nM.
Still for that read-out and setting: under `CCCCCn1cc(-c2cccc(C(=O)N(C)C)c2)c2cc[nH]c2c1=O` [Example 13, N,N-dimethyl-3-(7-oxo-6-pentyl-1H-pyrrolo[2,3-c]pyridin-4-yl)benzamide] stands 4500 nM.
On the same count and under the same terms, under `CC(C)Cn1cc(-c2cccc(C(=O)N(C)C)c2)c2cc[nH]c2c1=O` [Example 16, 3-(6-isobutyl-7-oxo-1H-pyrrolo[2,3-c]pyridin-4-yl)-N,N-dimethyl-benzamide] stands 8000 nM.
`CN(C)C(=O)c1cccc(-c2cn(CC3CC3)c(=O)c3[nH]ccc23)c1` [Example 17, 3-[6-(cyclopropylmethyl)-7-oxo-1H-pyrrolo[2,3-c]pyridin-4-yl]-N,N-dimethyl-benzamide]: the IC50 in assay [1] stood at 5600 nM.
For the compound `C/C=C/Cn1cc(-c2ccc(C(N)=O)c(F)c2)c2cc[nH]c2c1=O` [Example 20, 4-[6-[(E)-but-2-enyl]-7-oxo-1H-pyrrolo[2,3-c]pyridin-4-yl]-2-fluoro-benzamide], the IC50 in assay [2] was 890 nM.
On the same count and under the same terms, under `C/C=C/Cn1cc(-c2ccc(C(C)(C)C)cc2)c2cc[nH]c2c1=O` [Example 23, 6-[(E)-but-2-enyl]-4-(4-tert-butylphenyl)-1H-pyrrolo[2,3-c]pyridin-7-one] stands 2100 nM.
For `C/C=C/Cn1cc(-c2cccc(C(=O)NC)c2)c2cc[nH]c2c1=O` [Example 25, 3-[6-[(E)-but-2-enyl]-7-oxo-1H-pyrrolo[2,3-c]pyridin-4-yl]-N-methyl-benzamide], the half-inhibitory concentration (IC50) in assay [1] was 640 nM.
The compound `C/C=C/Cn1cc(-c2cccc(C(=O)NC3CC3)c2)c2cc[nH]c2c1=O` [Example 26, 3-[6-[(E)-but-2-enyl]-7-oxo-1H-pyrrolo[2,3-c]pyridin-4-yl]-N-cyclopropyl-benzamide] came in with an IC50 in assay [2] of 830 nM.
The same measure, in the same setting: under `C/C=C/Cn1cc(-c2ccc(C(=O)NC3CC3)cc2)c2cc[nH]c2c1=O` [Example 28, 4-[6-[(E)-but-2-enyl]-7-oxo-1H-pyrrolo[2,3-c]pyridin-4-yl]-N-cyclopropyl-benzamide] stands 510 nM.
As to `C/C=C/Cn1cc(-c2ccc(CO)cc2)c2cc[nH]c2c1=O` [Example 29, 6-[(E)-but-2-enyl]-4-[4-(hydroxymethyl)phenyl]-1H-pyrrolo[2,3-c]pyridin-7-one], the IC50 in assay [1] came out at 4500 nM.
On to `C/C=C/Cn1cc(-c2ccc(C(C)C)cc2)c2cc[nH]c2c1=O` [Example 31, 6-[(E)-but-2-enyl]-4-(4-isopropylphenyl)-1H-pyrrolo[2,3-c]pyridin-7-one], for which, in assay [2], the IC50 turned out to be 1600 nM.
On the same count and under the same terms, under `C/C=C/Cn1cc(-c2cccc(C(N)=O)c2F)c2cc[nH]c2c1=O` [Example 39, 3-[6-[(E)-but-2-enyl]-7-oxo-1H-pyrrolo[2,3-c]pyridin-4-yl]-2-fluoro-benzamide] stands 1200 nM.
For the compound `C/C=C/Cn1cc(-c2cc(C(N)=O)ccc2F)c2cc[nH]c2c1=O` [Example 40, 3-[6-[(E)-but-2-enyl]-7-oxo-1H-pyrrolo[2,3-c]pyridin-4-yl]-4-fluoro-benzamide], the 50% inhibitory concentration (IC50) in assay [2] was 1800 nM.
Compound `C/C=C/Cn1cc(-c2ccc(C(=O)N(C)C)c(Cl)c2)c2cc[nH]c2c1=O` [Example 43, 4-[6-[(E)-but-2-enyl]-7-oxo-1H-pyrrolo[2,3-c]pyridin-4-yl]-2-chloro-N,N-dimethyl-benzamide] yielded an IC50 in assay [1] of 2000 nM.
Take `C/C=C/Cn1cc(-c2cc(C(=O)NC3CC3)ccc2OC)c2cc[nH]c2c1=O` [Example 63, 3-[6-[(E)-but-2-enyl]-7-oxo-1H-pyrrolo[2,3-c]pyridin-4-yl]-N-cyclopropyl-4-methoxy-benzamide]: in assay [2], the IC50 stood at 980 nM. This counts as sub-micromolar.
The same measure, in the same setting: under `C/C=C/Cn1cc(-c2cc(C(=O)NC3CCOC3)ccc2OC)c2cc[nH]c2c1=O` (stereo not drawn) [Example 65, 3-[6-[(E)-but-2-enyl]-7-oxo-1H-pyrrolo[2,3-c]pyridin-4-yl]-4-methoxy-N-tetrahydrofuran-3-yl-benzamide] stands 1600 nM; under `C/C=C/Cn1cc(-c2cc(C(=O)NCC(F)F)ccc2OC)c2cc[nH]c2c1=O` [Example 69, 3-[6-[(E)-but-2-enyl]-7-oxo-1H-pyrrolo[2,3-c]pyridin-4-yl]-N-(2,2-difluoroethyl)-4-methoxy-benzamide], 320 nM; under `C/C=C/Cn1cc(-c2cc(C(=O)NC3CCC3)ccc2OC)c2cc[nH]c2c1=O` [Example 75, 3-[6-[(E)-but-2-enyl]-7-oxo-1H-pyrrolo[2,3-c]pyridin-4-yl]-N-cyclobutyl-4-methoxy-benzamide], 1300 nM.
In assay [2], `C/C=C/Cn1cc(-c2cc(C(=O)NCC3CC3)ccc2OC)c2cc[nH]c2c1=O` [Example 76, 3-[6-[(E)-but-2-enyl]-7-oxo-1H-pyrrolo[2,3-c]pyridin-4-yl]-N-(cyclopropylmethyl)-4-methoxy-benzamide] returned an IC50 of 1200 nM.
Same read-out and setting: as for `C/C=C/Cn1cc(-c2ccc3c(c2)NC(C)CC(=O)N3)c2cc[nH]c2c1=O` (stereo not drawn) [Example 84, 7-[6-[(E)-but-2-enyl]-7-oxo-1H-pyrrolo[2,3-c]pyridin-4-yl]-4-methyl-1,3,4,5-tetrahydro-1,5-benzodiazepin-2-one], the figure is 1900 nM; as for `CCCCn1cc(-c2cccc(C(=O)N(C)C)c2)c2cc(C)[nH]c2c1=O` [Example 86, 3-(6-butyl-2-methyl-7-oxo-1H-pyrrolo[2,3-c]pyridin-4-yl)-N,N-dimethyl-benzamide], 2300 nM.
`C/C=C/Cn1cc(-c2ccc(C(=O)N3CCOCC3)c(OC(C)C)c2)c2cc(C)[nH]c2c1=O` [Example 114, 6-[(E)-but-2-enyl]-4-[3-isopropoxy-4-(morpholine-4-carbonyl)phenyl]-2-methyl-1H-pyrrolo[2,3-c]pyridin-7-one] returned an IC50 in assay [3] of 3 nM. This counts as single-digit nanomolar.
Take `C/C=C/Cn1cc(-c2ccc(C(=O)N3CCOCC3)c(OCC3CC3)c2)c2cc(C)[nH]c2c1=O` [Example 115, 6-[(E)-but-2-enyl]-4-[3-(cyclopropylmethoxy)-4-(morpholine-4-carbonyl)phenyl]-2-methyl-1H-pyrrolo[2,3-c]pyridin-7-one]: the IC50 in assay [3] amounted to 5 nM. Against the preceding compound, the IC50 is about 1.7-fold higher.
`C/C=C/Cn1cc(-c2ccc(C(=O)N3CCNCC3)c(Cl)c2)c2cc(C)[nH]c2c1=O` [Example 116, (E)-6-(but-2-en-1-yl)-4-(3-chloro-4-(piperazine-1-carbonyl)phenyl)-2-methyl-1H-pyrrolo[2,3-c]pyridin-7(6H)-one] returned an IC50 in assay [3] of 4 nM.
Same read-out and setting: under `C/C=C/Cn1cc(-c2ccc(C(=O)N3CC(n4ccc(N)n4)C3)c(Cl)c2)c2cc(C)[nH]c2c1=O` [Example 117, (E)-4-(4-(3-(3-amino-1H-pyrazol-1-yl)azetidine-1-carbonyl)-3-chlorophenyl)-6-(but-2-en-1-yl)-2-methyl-1H-pyrrolo[2,3-c]pyridin-7(6H)-one] stands 5 nM; under `C/C=C/Cn1cc(-c2ccc(C(=O)N3CC(n4ccc(N)n4)C3)cc2)c2cc(C)[nH]c2c1=O` [Example 118, 4-[4-[3-(3-aminopyrazol-1-yl)azetidine-1-carbonyl]phenyl]-6-[(E)-but-2-enyl]-2-methyl-1H-pyrrolo[2,3-c]pyridin-7-one], 9 nM; under `C/C=C/Cn1cc(-c2cc(C(=O)NCc3cncnc3)ccc2OC)c2cc(C)[nH]c2c1=O` [Example 120, 3-[6-[(E)-but-2-enyl]-2-methyl-7-oxo-1H-pyrrolo[2,3-c]pyridin-4-yl]-4-methoxy-N-(pyrimidin-5-ylmethyl)benzamide], 3 nM.
Regarding `CCCCn1cc(-c2cc(OC)c(C(=O)N3CCOCC3)cc2OC)c2cc(C)[nH]c2c1=O` [Example 121, 6-butyl-4-[2,5-dimethoxy-4-(morpholine-4-carbonyl)phenyl]-2-methyl-1H-pyrrolo[2,3-c]pyridin-7-one], in assay [3], the IC50 was found to be 17 nM.
In turn, `CCCCn1cc(-c2ncc(C(=O)N3CCN(C)CC3)cc2OC)c2cc(C)[nH]c2c1=O` [Example 122, 6-butyl-4-[3-methoxy-5-(4-methylpiperazine-1-carbonyl)-2-pyridyl]-2-methyl-1H-pyrrolo[2,3-c]pyridin-7-one] came in with an IC50 in assay [3] of 180 nM.
`CCCCn1cc(-c2ncc(C(=O)N3CCOCC3)cc2OC)c2cc(C)[nH]c2c1=O` [Example 123, 6-butyl-4-[3-methoxy-5-(morpholine-4-carbonyl)-2-pyridyl]-2-methyl-1H-pyrrolo[2,3-c]pyridin-7-one] yielded an IC50 in assay [3] of 210 nM. The IC50 values of the last two compounds are within 1.5-fold of each other.

As usually defined, the IC50 is the concentration that inhibits the measured activity by half. Read a high IC50 as a need for much substance.
